20 compounds from PubChem BioAssay AID248 (DTP/NCI, 2004) can be followed below.

“And” between values parts separate entries of the source, which are not always exact repeats. Identical values can stand only once. Toxic doses and inconclusive results are not listed.

In the assay the test system is L1210 leukemia ip in BDF1 mice, survival T/C. Description: NCI In Vivo Anticancer Drug Screen. Data for tumor model L1210 Leukemia (intraperitoneal) in B6D2F1 (BDF1) mice. The settings on record: higher = longer survival. In short, it runs like this: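 Antitumor effect is assessed in tumor-bearing animals. Survival in the compound arm is compared with a vehicle-dosed control arm and expressed as their quotient.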

The mark [1] stands for this setting: endpoint: mean survival time, dose: 100.0 mg/kg/injection, schedule: Q01DX001 (ip), vehicle: carboxymethylcellulose (CMC).
The mark [2] stands for this setting: endpoint: mean survival time, dose: 200.0 mg/kg/injection, schedule: Q01DX001 (ip), vehicle: carboxymethylcellulose (CMC).
The mark [3] stands for this setting: endpoint: mean survival time, dose: 400.0 mg/kg/injection, schedule: Q01DX001 (ip), vehicle: carboxymethylcellulose (CMC).
[4] abbreviates: endpoint: mean survival time, dose: 25.0 mg/kg/injection, schedule: Q04DX003 (ip), vehicle: saline with Tween-80.
Where [5] appears, read: endpoint: mean survival time, dose: 100.0 mg/kg/injection, schedule: Q04DX003 (ip), vehicle: saline.
The mark [6] stands for this setting: endpoint: mean survival time, dose: 200.0 mg/kg/injection, schedule: Q04DX003 (ip), vehicle: saline.
The mark [7] stands for this setting: endpoint: mean survival time, dose: 400.0 mg/kg/injection, schedule: Q04DX003 (ip), vehicle: saline.
Where [8] appears, read: endpoint: mean survival time, dose: 100.0 mg/kg/injection, schedule: Q01DX009 (ip), vehicle: saline with Tween-80.
[9] abbreviates: endpoint: mean survival time, dose: 200.0 mg/kg/injection, schedule: Q01DX009 (ip), vehicle: saline with Tween-80.
Setting [10] is: endpoint: mean survival time, dose: 100.0 mg/kg/injection, schedule: Q01DX009 (ip), vehicle: saline.
Setting [11] is: endpoint: mean survival time, dose: 200.0 mg/kg/injection, schedule: Q01DX009 (ip), vehicle: saline.
[12] abbreviates: endpoint: mean survival time, dose: 400.0 mg/kg/injection, schedule: Q01DX009 (ip), vehicle: saline.

With `c1csc(C2SC(c3cccs3)SC(c3cccs3)S2)c1` (stereo not drawn), the T/C is 100 % of control under setting [1], 92 % of control under setting [2] and 95 % of control under setting [3].

Regarding `CC(=O)c1ccc(Br)cc1OCC(=O)O`, the T/C is, setting by setting: (endpoint: mean survival time, dose: 100.0 mg/kg/injection, schedule: Q01DX009 (ip), vehicle: gum acacia) 102 % of control; (endpoint: mean survival time, dose: 100.0 mg/kg/injection, schedule: Q04DX003 (ip), vehicle: gum acacia) 97 % of control; (endpoint: mean survival time, dose: 200.0 mg/kg/injection, schedule: Q01DX009 (ip), vehicle: gum acacia) 103 % of control; (endpoint: mean survival time, dose: 200.0 mg/kg/injection, schedule: Q04DX003 (ip), vehicle: gum acacia) 92 % of control; (endpoint: mean survival time, dose: 400.0 mg/kg/injection, schedule: Q04DX003 (ip), vehicle: gum acacia) 94 % of control.

Regarding `CN(C)C(=S)Oc1ccc(C(F)(F)F)cc1`, the T/C was 95 % of control (endpoint: mean survival time, dose: 100.0 mg/kg/injection, schedule: Q04DX003 (ip), vehicle: Klucel (hydroxypropylcellulose) (HPC)); 93 % of control (endpoint: mean survival time, dose: 200.0 mg/kg/injection, schedule: Q04DX003 (ip), vehicle: Klucel (hydroxypropylcellulose) (HPC)); 101 % of control (endpoint: mean survival time, dose: 400.0 mg/kg/injection, schedule: Q04DX003 (ip), vehicle: Klucel (hydroxypropylcellulose) (HPC)).

On to `CCOC(=O)NCC(C)(CCN1CCCCC1)c1cccc2ccccc12` (stereo not drawn), for which the T/C is 104 % of control (endpoint: mean survival time, dose: 6.25 mg/kg/injection, schedule: Q04DX003 (ip), vehicle: saline with Tween-80); 98 % of control (endpoint: mean survival time, dose: 12.5 mg/kg/injection, schedule: Q04DX003 (ip), vehicle: saline with Tween-80); 97 % of control under setting [4].

As for `CC(=O)Nc1ccc(/C=N/NC(N)=S)cc1`, the T/C by setting is: (endpoint: mean survival time, dose: 100.0 mg/kg/injection, schedule: Q04DX013 (ip), vehicle: carboxymethylcellulose (CMC)) 94 % of control; (endpoint: mean survival time, dose: 200.0 mg/kg/injection, schedule: Q04DX013 (ip), vehicle: carboxymethylcellulose (CMC)) 98 % of control.

In the case of `Cc1cc(NCCCCCCCNc2cc(C)nc3cc(N)ccc23)c2ccc(N)cc2n1`, the T/C is 123 % of control (endpoint: median survival time, dose: 1.56 mg/kg/injection, schedule: Q01DX009 (ip), vehicle: water); 154 % of control (endpoint: median survival time, dose: 6.25 mg/kg/injection, schedule: Q01DX009 (ip), vehicle: water); 194 % of control (endpoint: median survival time, dose: 12.5 mg/kg/injection, schedule: Q01DX009 (ip), vehicle: water); 116 % of control (endpoint: median survival time, dose: 25.0 mg/kg/injection, schedule: Q01DX009 (ip), vehicle: water).

For the compound `Cc1ccc(S(=O)(=O)N2CN3CN(C2)CN(S(=O)(=O)c2ccc(C)cc2)C3)cc1`, the T/C is 95 % of control under setting [5], 86 % of control under setting [6] and 95 % of control under setting [7].

Turning to `Cc1cccc2c1/C(=N\Nc1ccc([N+](=O)[O-])cc1[N+](=O)[O-])CC(C)(C)C2`, the T/C runs as follows: under setting [8], 104 % of control; under setting [9], 100 % of control; (endpoint: mean survival time, dose: 400.0 mg/kg/injection, schedule: Q01DX009 (ip), vehicle: saline with Tween-80) 100 % of control.

As to `CCCC[P+](CCCC)(CCCC)CC(=O)OCC`, the T/C (endpoint: mean survival time, dose: 15.0 mg/kg/injection, schedule: Q01DX001 (ip), vehicle: carboxymethylcellulose (CMC)) is 86 % of control and the T/C (endpoint: mean survival time, dose: 60.0 mg/kg/injection, schedule: Q01DX001 (ip), vehicle: carboxymethylcellulose (CMC)) was 87 % of control.

Take `O=[N+]([O-])c1ccc([As](=O)(O)c2ccc([N+](=O)[O-])cc2)cc1`: the T/C is 95 % of control (endpoint: mean survival time, dose: 75.0 mg/kg/injection, schedule: Q01DX001 (ip), vehicle: saline) and 100 % of control (endpoint: mean survival time, dose: 150.0 mg/kg/injection, schedule: Q01DX001 (ip), vehicle: saline).

With `O=C(O)CNCCN1CC(=O)N(Cc2ccccc2)C1=S`, the T/C runs as follows: under setting [1], 100 % of control; (endpoint: mean survival time, dose: 100.0 mg/kg/injection, schedule: Q01DX009 (ip), vehicle: carboxymethylcellulose (CMC)) 104 % of control; (endpoint: mean survival time, dose: 100.0 mg/kg/injection, schedule: Q04DX002 (ip), vehicle: carboxymethylcellulose (CMC)) 94 % of control and 103 % of control; (endpoint: mean survival time, dose: 100.0 mg/kg/injection, schedule: Q04DX003 (ip), vehicle: carboxymethylcellulose (CMC)) 100 % of control; under setting [2], 103 % of control; (endpoint: mean survival time, dose: 200.0 mg/kg/injection, schedule: Q01DX009 (ip), vehicle: carboxymethylcellulose (CMC)) 93 % of control and 101 % of control. Further, the T/C reads like this: (endpoint: mean survival time, dose: 200.0 mg/kg/injection, schedule: Q04DX002 (ip), vehicle: carboxymethylcellulose (CMC)) 103 % of control and 88 % of control; (endpoint: mean survival time, dose: 200.0 mg/kg/injection, schedule: Q04DX003 (ip), vehicle: carboxymethylcellulose (CMC)) 98 % of control; under setting [3], 101 % of control; (endpoint: mean survival time, dose: 400.0 mg/kg/injection, schedule: Q01DX009 (ip), vehicle: carboxymethylcellulose (CMC)) 96 % of control; (endpoint: mean survival time, dose: 400.0 mg/kg/injection, schedule: Q04DX002 (ip), vehicle: carboxymethylcellulose (CMC)) 98 % of control and 103 % of control.

With `CCCCC(=O)NCCc1ccc2c([nH]c3ccccc32)c1C`, the T/C runs as follows: under setting [5], 96 % of control; under setting [6], 104 % of control; under setting [7], 96 % of control.

With `O=c1c2ccccc2sc2c(CO)ccc(NCCN3CCCCC3)c12`, the T/C runs as follows: (endpoint: mean survival time, dose: 50.0 mg/kg/injection, schedule: Q01DX009 (ip), vehicle: Klucel (hydroxypropylcellulose) (HPC)) 99 % of control; (endpoint: mean survival time, dose: 100.0 mg/kg/injection, schedule: Q01DX009 (ip), vehicle: Klucel (hydroxypropylcellulose) (HPC)) 96 % of control; (endpoint: mean survival time, dose: 200.0 mg/kg/injection, schedule: Q01DX009 (ip), vehicle: Klucel (hydroxypropylcellulose) (HPC)) 120 % of control.

On to `COc1ccc(NC(=O)Nc2cc(Cl)ccc2OC)c(Cl)c1`, for which the T/C under setting [10] is 100 % of control; the T/C under setting [5] is 104 % of control; the T/C under setting [11] is 93 % of control; the T/C under setting [6] is 98 % of control; the T/C under setting [12] is 88 % of control; the T/C under setting [7] was 101 % of control.

In the case of `C[P+]1(CCc2ccc(Cl)cc2)CC=CC1`, the T/C was 93 % of control (endpoint: mean survival time, dose: 25.0 mg/kg/injection, schedule: Q04DX003 (ip), vehicle: saline); 103 % of control (endpoint: mean survival time, dose: 50.0 mg/kg/injection, schedule: Q04DX003 (ip), vehicle: saline); 96 % of control and 88 % of control under setting [5].

Turning to `O=C(O)c1nnc(C(=O)O)nn1`, the T/C is 96 % of control (endpoint: mean survival time, dose: 50.0 mg/kg/injection, schedule: Q01DX009 (ip), vehicle: saline); 102 % of control and 104 % of control under setting [10]; 100 % of control under setting [5]; 100 % of control and 101 % of control under setting [11]; 103 % of control under setting [6]; 96 % of control under setting [12]. Also, the T/C under setting [7] was 94 % of control.

As for `Cc1cc2c(cc1C)[n+]([O-])c1c(=O)[nH]c(=O)nc-1n2CC(O)C(O)C(O)CO` (stereo not drawn), the T/C runs as follows: (endpoint: mean survival time, dose: 100.0 mg/kg/injection, schedule: Q04DX002 (ip), vehicle: saline with Tween-80) 98 % of control; (endpoint: mean survival time, dose: 200.0 mg/kg/injection, schedule: Q04DX002 (ip), vehicle: saline with Tween-80) 95 % of control.

Take `c1ccn2nnnc2c1`: the T/C is, setting by setting: (endpoint: mean survival time, dose: 100.0 mg/kg/injection, schedule: Q01DX001 (ip), vehicle: other) 97 % of control; (endpoint: mean survival time, dose: 200.0 mg/kg/injection, schedule: Q01DX001 (ip), vehicle: other) 94 % of control.

For the compound `CC1(c2cccs2)NC(=O)N(Cl)C1=O` (stereo not drawn), the T/C reads like this: (endpoint: mean survival time, dose: 25.0 mg/kg/injection, schedule: Q01DX009 (ip), vehicle: saline with Tween-80) 93 % of control; under setting [4], 99 % of control; (endpoint: mean survival time, dose: 50.0 mg/kg/injection, schedule: Q01DX009 (ip), vehicle: saline with Tween-80) 96 % of control; (endpoint: mean survival time, dose: 50.0 mg/kg/injection, schedule: Q04DX003 (ip), vehicle: saline with Tween-80) 99 % of control; under setting [8], 105 % of control; (endpoint: mean survival time, dose: 100.0 mg/kg/injection, schedule: Q04DX003 (ip), vehicle: saline with Tween-80) 100 % of control and 91 % of control. In addition, under setting [9], the T/C was 94 % of control.

In the case of `CC(CN=Cc1ccc(N(CCCl)CCCl)cc1)N=Cc1ccc(N(CCCl)CCCl)cc1` (stereo not drawn), the T/C is 109 % of control (endpoint: mean survival time, dose: 50.0 mg/kg/injection, schedule: Q01DX001 (ip), vehicle: carboxymethylcellulose (CMC)); 111 % of control under setting [1]; 109 % of control under setting [2]; 111 % of control under setting [3].
